“Also recorded” adds a separate entry of the source. Read-outs that look alike come from different tables or passages of the source.
How the values were obtained:
[1] = target: rNav1.8 Na+ channels in ND7-23 cells (Rattus norvegicus, UniProt Q62968); assay: Whole-cell patch clamp, rNav1.8 INa in ND7-23 cells (Example 2); conditions: for Use-dependent block of rNav1.8 INa: 40 pulses of 10 msec to +50 mV; for Kd: estimated from shift of steady-state inactivation curve (Bean equation)
[2] = tested on: CFA-induced mechanical allodynia; assay: CFA-induced mechanical allodynia, electro-von Frey withdrawal threshold; format: in vivo, Male Sprague Dawley rats
[3] = target: hNav1.7+β1 subunits in HEK293 cells (Homo sapiens, UniProt Q15858); assay: Whole-cell patch clamp, hNav1.7 INa in HEK293 cells (Example 2); conditions: for Kd: estimated from shift of steady-state inactivation curve (Bean equation); for IC50: IC50 value, block of Nav1.7 INa
[4] = tested on: CFA-induced thermal hyperalgesia; assay: CFA-induced thermal hyperalgesia, paw withdrawal latency; format: in vivo, Male Sprague Dawley rats; conditions: day 3 after CFA
[5] = tested on: hNav1.7 and rNav1.8 Na+ channels; assay: Rate of development of slow inactivation, stated for hNav1.7 and rNav1.8 together; format: cell-based; conditions: 30 μM
Description: The time dependence of development of inactivation of hNav1.7 (−20 mV, FIG. 7A, n=4-5 cells) and rNav1.8 (+20 mV, FIG. 7B, n=4-5 cells) INa in the absence (▪) and presence (□) of 30 μM ranolazine is shown in FIG. 7. For control conditions, the progressive decay of currents with increasing conditioning pulse duration reflects entry of channels into inactivated states. The development of slow inactivation of hNav1.7+β1 and rNav1.8 channels could be fit with double and triple exponential functions, respectively (see Table 6, control, Development of slow inactivation).
As shown previously, (Vijayaragavan et al (2001) J. Neurosci 21:7909-18) the onset of slow inactivation of Nav1.8 channels is rapid when compared to Nav1.7 channels (˜fourfold, see Table 6, control, τF=10.78 and 43.97 msec for Nav1.8 and Nav1.7 channels, respectively). […] The time constants for development of inactivation of hNav1.7 (n=4 cells) and rNav1.8 (n=5 cells) INa with a depolarizing prepulse to −40 mV (hNav1.7) or −20 mV (rNav1.8) in the absence and presence of 30 μM ranolazine are given in Table 6.

[6] = target: SCN9A (Nav1.7) Na+ channel, α- and β1 subunits, in HEK293 cells (Homo sapiens, UniProt Q15858); assay: Whole-cell patch clamp, Nav1.7 peak INa in HEK293 cells (Example 1); conditions: for Mean amplitude of Nav1.7 peak INa, fraction of control: −100 mV to 0 mV, 50 msec
[7] = tested on: endogenous TTX-S INa in ND7-23 cells; assay: cells; format: cell-based, rat DRG/mouse neuroblastoma hybrid; conditions: V0, recorded in the absence of TTX
[8] = Solubility of Ranolazine in aqueous solutions versus pH; format: physicochemical
[9] = 10 μM, 10 sec prepulse, n=6 cells
[10] = 10 μM, 100 msec prepulse, n=4 cells
[11] = Dissociation constant for inactivated state (Kdi)
[12] = Dissociation constant for rested state (Kdr)
[13] = 10 μM, 10 sec prepulse, n=4 cells
[14] = male, Sprague Dawley, rat, in vivo, po
[15] = holding −100 mV to 0 mV, 0.1 Hz

rNav1.8 Na+ channels in ND7-23 cells, sequence (Q62968 whole entry): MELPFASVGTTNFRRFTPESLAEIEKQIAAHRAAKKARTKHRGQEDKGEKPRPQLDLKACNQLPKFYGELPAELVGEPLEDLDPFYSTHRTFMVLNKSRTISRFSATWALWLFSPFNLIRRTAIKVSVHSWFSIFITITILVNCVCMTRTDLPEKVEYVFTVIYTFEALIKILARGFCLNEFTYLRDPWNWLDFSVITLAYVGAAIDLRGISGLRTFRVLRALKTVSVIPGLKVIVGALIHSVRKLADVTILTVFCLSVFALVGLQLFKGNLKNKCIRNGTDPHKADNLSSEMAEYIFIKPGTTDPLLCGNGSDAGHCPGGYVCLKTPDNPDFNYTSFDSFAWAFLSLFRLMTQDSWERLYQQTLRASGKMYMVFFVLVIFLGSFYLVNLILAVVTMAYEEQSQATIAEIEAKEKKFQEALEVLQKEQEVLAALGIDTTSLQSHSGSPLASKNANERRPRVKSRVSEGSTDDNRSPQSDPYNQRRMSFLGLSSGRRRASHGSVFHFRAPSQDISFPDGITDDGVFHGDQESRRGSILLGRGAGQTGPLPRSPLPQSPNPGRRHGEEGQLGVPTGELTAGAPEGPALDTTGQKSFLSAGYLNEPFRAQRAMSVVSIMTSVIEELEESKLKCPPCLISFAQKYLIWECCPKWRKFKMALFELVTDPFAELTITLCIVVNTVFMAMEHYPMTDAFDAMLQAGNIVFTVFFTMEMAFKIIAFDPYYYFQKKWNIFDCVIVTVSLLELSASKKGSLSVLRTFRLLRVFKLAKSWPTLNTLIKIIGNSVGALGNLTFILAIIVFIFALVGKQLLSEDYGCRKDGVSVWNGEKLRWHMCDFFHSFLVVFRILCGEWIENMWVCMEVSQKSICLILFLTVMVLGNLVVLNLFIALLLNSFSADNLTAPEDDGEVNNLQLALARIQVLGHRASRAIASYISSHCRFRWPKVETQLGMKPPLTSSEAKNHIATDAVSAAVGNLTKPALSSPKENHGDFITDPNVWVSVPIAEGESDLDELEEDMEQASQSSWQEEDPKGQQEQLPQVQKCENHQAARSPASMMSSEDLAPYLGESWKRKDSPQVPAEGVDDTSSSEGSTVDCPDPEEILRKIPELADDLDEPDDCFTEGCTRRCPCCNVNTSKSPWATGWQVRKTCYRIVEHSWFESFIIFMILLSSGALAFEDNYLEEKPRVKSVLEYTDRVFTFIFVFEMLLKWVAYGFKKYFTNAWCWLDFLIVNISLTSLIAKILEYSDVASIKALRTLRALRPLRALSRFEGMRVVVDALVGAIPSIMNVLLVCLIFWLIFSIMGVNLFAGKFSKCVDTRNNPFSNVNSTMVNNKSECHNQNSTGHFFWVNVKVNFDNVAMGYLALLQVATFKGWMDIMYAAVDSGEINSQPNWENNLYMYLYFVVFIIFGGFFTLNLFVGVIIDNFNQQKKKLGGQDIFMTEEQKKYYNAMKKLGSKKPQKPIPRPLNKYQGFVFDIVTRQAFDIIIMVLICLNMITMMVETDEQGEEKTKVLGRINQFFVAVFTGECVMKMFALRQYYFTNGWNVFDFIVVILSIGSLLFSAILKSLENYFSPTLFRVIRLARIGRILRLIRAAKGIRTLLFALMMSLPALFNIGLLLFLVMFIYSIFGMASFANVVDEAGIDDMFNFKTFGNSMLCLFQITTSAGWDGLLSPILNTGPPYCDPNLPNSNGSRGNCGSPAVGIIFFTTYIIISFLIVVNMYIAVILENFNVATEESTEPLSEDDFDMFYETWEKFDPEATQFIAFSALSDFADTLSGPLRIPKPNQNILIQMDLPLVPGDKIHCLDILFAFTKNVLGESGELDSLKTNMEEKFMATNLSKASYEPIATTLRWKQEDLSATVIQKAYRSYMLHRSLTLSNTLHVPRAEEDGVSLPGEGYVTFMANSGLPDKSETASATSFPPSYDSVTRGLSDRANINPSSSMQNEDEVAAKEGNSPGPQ
SCN9A (Nav1.7) Na+ channel, α- and β1 subunits, in HEK293 cells, sequence (Q15858 whole entry): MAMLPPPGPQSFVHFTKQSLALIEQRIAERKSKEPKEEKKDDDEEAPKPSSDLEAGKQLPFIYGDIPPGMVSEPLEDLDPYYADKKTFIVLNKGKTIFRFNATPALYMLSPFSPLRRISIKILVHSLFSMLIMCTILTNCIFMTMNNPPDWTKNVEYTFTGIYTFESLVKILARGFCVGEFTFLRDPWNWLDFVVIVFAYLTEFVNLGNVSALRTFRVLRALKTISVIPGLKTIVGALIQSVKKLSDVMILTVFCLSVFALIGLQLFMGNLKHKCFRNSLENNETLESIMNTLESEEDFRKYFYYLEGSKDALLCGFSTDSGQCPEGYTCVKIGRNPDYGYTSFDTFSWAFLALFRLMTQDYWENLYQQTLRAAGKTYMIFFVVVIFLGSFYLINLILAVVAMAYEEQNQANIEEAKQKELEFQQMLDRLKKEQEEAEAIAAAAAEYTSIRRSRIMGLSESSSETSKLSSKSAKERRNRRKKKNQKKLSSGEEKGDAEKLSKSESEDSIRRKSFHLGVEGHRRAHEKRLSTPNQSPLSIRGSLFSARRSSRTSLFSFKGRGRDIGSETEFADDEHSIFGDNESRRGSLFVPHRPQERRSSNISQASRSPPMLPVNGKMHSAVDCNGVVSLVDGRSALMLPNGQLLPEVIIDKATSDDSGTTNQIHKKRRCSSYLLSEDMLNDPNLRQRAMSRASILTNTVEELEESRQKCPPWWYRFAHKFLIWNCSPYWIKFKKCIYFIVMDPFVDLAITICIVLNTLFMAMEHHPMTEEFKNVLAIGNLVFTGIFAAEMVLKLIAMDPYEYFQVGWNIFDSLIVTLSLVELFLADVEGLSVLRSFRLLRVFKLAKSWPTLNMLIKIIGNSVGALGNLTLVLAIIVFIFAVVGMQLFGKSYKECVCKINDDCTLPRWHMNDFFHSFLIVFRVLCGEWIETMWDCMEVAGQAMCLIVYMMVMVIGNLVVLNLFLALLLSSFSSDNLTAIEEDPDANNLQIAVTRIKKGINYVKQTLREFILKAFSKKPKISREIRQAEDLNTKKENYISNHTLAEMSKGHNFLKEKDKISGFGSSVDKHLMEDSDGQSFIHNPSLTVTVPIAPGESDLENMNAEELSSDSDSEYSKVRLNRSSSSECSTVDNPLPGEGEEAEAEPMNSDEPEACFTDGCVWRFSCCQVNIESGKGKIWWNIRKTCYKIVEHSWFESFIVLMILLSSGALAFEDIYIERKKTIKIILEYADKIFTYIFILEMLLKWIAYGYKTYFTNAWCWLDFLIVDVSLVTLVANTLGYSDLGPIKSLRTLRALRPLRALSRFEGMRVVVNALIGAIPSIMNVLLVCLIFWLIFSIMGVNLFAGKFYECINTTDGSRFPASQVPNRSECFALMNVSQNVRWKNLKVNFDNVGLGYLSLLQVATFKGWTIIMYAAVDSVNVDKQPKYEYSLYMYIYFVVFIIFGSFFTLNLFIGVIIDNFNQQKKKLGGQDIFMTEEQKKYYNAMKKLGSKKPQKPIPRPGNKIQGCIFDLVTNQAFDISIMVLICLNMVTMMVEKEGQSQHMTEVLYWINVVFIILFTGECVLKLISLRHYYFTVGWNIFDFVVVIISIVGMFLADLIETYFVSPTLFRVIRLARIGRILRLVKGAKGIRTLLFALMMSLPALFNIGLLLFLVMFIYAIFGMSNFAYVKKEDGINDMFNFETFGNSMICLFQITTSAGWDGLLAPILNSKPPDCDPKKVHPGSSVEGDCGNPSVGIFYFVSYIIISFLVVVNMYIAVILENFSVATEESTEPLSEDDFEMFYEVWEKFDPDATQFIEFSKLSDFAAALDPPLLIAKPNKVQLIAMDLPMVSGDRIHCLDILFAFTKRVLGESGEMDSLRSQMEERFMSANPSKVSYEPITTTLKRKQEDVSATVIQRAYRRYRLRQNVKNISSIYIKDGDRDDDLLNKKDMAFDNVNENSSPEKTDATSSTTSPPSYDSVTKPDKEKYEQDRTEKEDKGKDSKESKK
SCN9A (Nav1.7) Na+ channel, α- and β1 subunits, in HEK293 cells, sequence (Q07699 19-218 partner): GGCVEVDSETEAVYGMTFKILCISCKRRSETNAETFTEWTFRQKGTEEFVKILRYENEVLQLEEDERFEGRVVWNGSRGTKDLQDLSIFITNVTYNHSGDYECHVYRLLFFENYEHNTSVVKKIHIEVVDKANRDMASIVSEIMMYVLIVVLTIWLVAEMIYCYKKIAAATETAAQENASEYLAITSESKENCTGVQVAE
hNav1.7+β1 subunits in HEK293 cells, sequence (Q15858 whole entry): as the sequence (Q15858 whole entry) above
hNav1.7+β1 subunits in HEK293 cells, sequence (Q07699 19-218 partner): as the sequence (Q07699 19-218 partner) above

COc1ccccc1OCC(O)CN1CCN(CC(=O)Nc2c(C)cccc2C)CC1 (racemic) [Ranolazine, (±)-N-(2,6-dimethylphenyl)-4-[2-hydroxy-3-(2-methoxyphenoxy)-propyl]-1-piperazineacetamide]
IC50 [1]: 21.5 ± 3.01 µM
Inactivation V1/2 (steady-state intermediate, 1 sec prepulse) ([1]; 1 μM): −42.75 ± 3.93 mV
Inactivation slope factor K (1 sec prepulse) ([1]; 1 μM): 7.38 ± 0.93 mV/e-fold
Inactivation V1/2 (steady-state intermediate, 1 sec prepulse) ([1]; 3 μM): −47.61 ± 4.56 mV
Inactivation slope factor K (1 sec prepulse) ([1]; 3 μM): 7.14 ± 0.61 mV/e-fold
Activation V1/2 ([1]; 10 μM): 4.71 ± 2.58 mV
Activation slope factor K ([1]; 10 μM): 8.55 ± 1.62 mV/e-fold
Inactivation V1/2 (steady-state intermediate, 1 sec prepulse) ([1]; 10 μM): −57.88 ± 5.73 mV
Inactivation slope factor K (1 sec prepulse) ([1]; 10 μM): 7.59 ± 0.79 mV/e-fold
V1/2 of steady-state slow inactivation [1, 9]: −54.57±3.69
k of steady-state slow inactivation [1, 9]: 8.38±0.76
V1/2 of steady-state fast inactivation [1, 10]: −40.66±3.23
k of steady-state fast inactivation [1, 10]: 11.45±1.21
Inactivation V1/2 (steady-state intermediate, 1 sec prepulse) ([1]; 30 μM): −59.52 ± 2.18 mV
Inactivation slope factor K (1 sec prepulse) ([1]; 30 μM): 7.59 ± 1.09 mV/e-fold
Use-dependent block of rNav1.8 INa ([1]; 30 μM, 1 Hz): 60.20±2.04%
Use-dependent block of rNav1.8 INa ([1]; 30 μM, 5 Hz): 67.96±4.68%
Use-dependent block of rNav1.8 INa ([1]; 30 μM, 10 Hz): 70.16±2.09%
Development of slow inactivation, AF ([1]; 30 μM, at +20 mV): 0.53 ± 0.07
Development of slow inactivation, AI ([1]; 30 μM, at +20 mV): 0.25 ± 0.07
Development of slow inactivation, AS ([1]; 30 μM, at +20 mV): 0.09 ± 0.02
Development of slow inactivation, τF ([1]; 30 μM, at +20 mV): 5.59 ± 1.08 ms
Development of slow inactivation, τI ([1]; 30 μM, at +20 mV): 34.11 ± 14.14 ms
Development of slow inactivation, τS ([1]; 30 μM, at +20 mV): 703.24 ± 373.82 ms
Time constant of INa decay (single exponential) ([1]; 30 μM, at +20 mV, n=4 cells): 1.60 ± 0.04 ms
Development of slow inactivation, AF ([1]; 30 μM, at −20 mV): 0.52 ± 0.05
Development of slow inactivation, AI ([1]; 30 μM, at −20 mV): 0.30 ± 0.06
Development of slow inactivation, AS ([1]; 30 μM, at −20 mV): 0.18 ± 0.03
Development of slow inactivation, τF ([1]; 30 μM, at −20 mV): 22.75 ± 2.31 ms
Development of slow inactivation, τI ([1]; 30 μM, at −20 mV): 98.08 ± 13.65 ms
Development of slow inactivation, τS ([1]; 30 μM, at −20 mV): 1203.00 ± 337.50 ms
Steady-state use-dependent block of rNav1.8 INa ([1]; 100 μM, 3, 5, 20 or 200 msec pulses to +50 mV, 5 Hz): 71.69±0.85%
Kd [1, 11]: 0.64 µM
Kd [1, 12]: 22.8 µM
IC50 ([1]; IC50 value, block of Nav1.8 INa, V0.5, holding potential −40 mV): 4.33 ± 0.52 µM
Hill Coefficient, block of Nav1.8 INa ([1]; V0, holding potential −100 mV): [0.90 ± 0.11]
Hill Coefficient, block of Nav1.8 INa ([1]; V0.5, holding potential −40 mV): [0.89 ± 0.09]
Effect on mechanical allodynia (paw sensitivity to mechanical stimulation) ([2]; i.p. 10, 20, 50 mg/kg, 30 minutes after dosing, day 3 after CFA): clearly reduced paw sensitivity to mechanical stimulation in a dose-dependent fashion; also recorded: dose dependent reduction in mechanical allodynia
Dose at which maximum analgesic response was achieved ([2]; oral gavage, plateau to the analgesic response): 100 mg/kg
Analgesic effect at highest oral dose ([2]; p.o. 200 mg/kg): non-significant trend toward a reduction in analgesic effect
Effect on mechanical allodynia ([2]; p.o. 20, 50, 100, 200 mg/kg, 1 hour after gavage, day 3 after CFA): dose dependent reduction in mechanical allodynia
Optimum oral dosing for reduction of mechanical allodynia ([2]; p.o., no additional benefit at higher doses (FIG. 11 legend)): 50 mg/kg
Inactivation V1/2 (steady-state intermediate, 1 sec prepulse) ([3]; 1 μM): −78.97 ± 3.09 mV
Inactivation slope factor k (1 sec prepulse) ([3]; 1 μM): 4.80 ± 0.21 mV/e-fold
Inactivation V1/2 (steady-state intermediate, 1 sec prepulse) ([3]; 3 μM): −84.44 ± 3.64 mV
Inactivation slope factor k (1 sec prepulse) ([3]; 3 μM): 4.76 ± 0.11 mV/e-fold
Activation V1/2 ([3]; 10 μM): −33.96 ± 2.06 mV
Activation slope factor k ([3]; 10 μM): 4.77 ± 0.32 mV/e-fold
Inactivation V1/2 (steady-state intermediate, 1 sec prepulse) ([3]; 10 μM): −86.99 ± 2.86 mV
Inactivation slope factor k (1 sec prepulse) ([3]; 10 μM): 4.56 ± 0.1 mV/e-fold
V1/2 of steady-state slow inactivation [3, 13]: −61.39±3.54
k of steady-state slow inactivation [3, 13]: 14.22±2.14
V1/2 of steady-state fast inactivation [3, 10]: −86.15±3.62
k of steady-state fast inactivation [3, 10]: 7.55±0.82
Inactivation V1/2 (steady-state intermediate, 1 sec prepulse) ([3]; 30 μM): −89.07 ± 5.41 mV
Inactivation slope factor k (1 sec prepulse) ([3]; 30 μM): 5.15 ± 0.31 mV/e-fold
Development of slow inactivation, AF ([3]; 30 μM, at −20 mV): 0.24 ± 0.02
Development of slow inactivation, AS ([3]; 30 μM, at −20 mV): 0.56 ± 0.01
Development of slow inactivation, τF ([3]; 30 μM, at −20 mV): 9.14 ± 2.49 ms
Development of slow inactivation, τS ([3]; 30 μM, at −20 mV): 1657.71 ± 180.23 ms
Time constant of INa decay (single exponential) ([3]; 30 μM, at −20 mV, n=4 cells): 0.68 ± 0.15 ms
Development of slow inactivation, AF ([3]; 30 μM, at −40 mV): 0.30 ± 0.02
Development of slow inactivation, AS ([3]; 30 μM, at −40 mV): 0.67 ± 0.02
Development of slow inactivation, τF ([3]; 30 μM, at −40 mV): 23.99 ± 2.92 ms
Development of slow inactivation, τS ([3]; 30 μM, at −40 mV): 1845.75 ± 129.03 ms
Kd [3, 11]: 0.47 µM
Kd [3, 12]: 12.1 µM
IC50 ([3]; V0, holding potential −120 mV): 10.4 ± 1.25 µM
IC50 ([3]; V0.5, holding potential −70 mV): 3.25 ± 0.17 µM
Hill Coefficient, block of Nav1.7 INa ([3]; V0, holding potential −120 mV): [0.84 ± 0.09]
Hill Coefficient, block of Nav1.7 INa ([3]; V0.5, holding potential −70 mV): [1.33 ± 0.08]
Effect on paw withdrawal from thermal stimulation ([4]; i.p. 10, 20, 50 mg/kg, 30 minutes after dosing): no significant effect on paw sensitivity was observed; also recorded: no significant effect of treatment on paw withdrawal from thermal stimulation
Effect on paw withdrawal from thermal stimulation ([4]; p.o. 20, 50, 100, 200 mg/kg, 1 hour after gavage): no significant effect of treatment on paw withdrawal from thermal stimulation
Rate of development of slow inactivation, faster than control ([5]; −20 mV (hNav1.7), +20 mV (rNav1.8)): 2-5 fold
Rate of development of slow inactivation, faster than control ([5]; −40 mV (hNav1.7), −20 mV (rNav1.8)): 4-10 fold
Death (Male Sprague Dawley rats; doses of 100 mg/kg (i.p.)): 50%
Doses at which adverse effects were noted (Male Sprague Dawley rats; male, Sprague Dawley, rat, in vivo, ip): ≥ 100 mg/kg
Time of onset of adverse pulmonary event after drug administration (Male Sprague Dawley rats; [14]): approximately 1 hour
Time to resolution of adverse pulmonary effect after gavage (Male Sprague Dawley rats; [14]): ≤ 24 h
Adverse event (Male Sprague Dawley rats; rat, in vivo, po): respiratory strider
Mean amplitude of Nav1.7 peak INa, fraction of control ([6]; 1 μM, 0.1 Hz): 0.9114
Mean amplitude of Nav1.7 peak INa, fraction of control ([6]; 3 μM, 0.1 Hz): 0.7275
Mean amplitude of Nav1.7 peak INa, fraction of control ([6]; 10 μM, 0.1 Hz): 0.4692
Mean amplitude of Nav1.7 peak INa, fraction of control ([6]; 30 μM, 0.1 Hz): 0.327
Block of Nav1.7 peak INa at end of pulse train (pulse 40) ([6]; 100 μM, 40 pulses −100 to 0 mV, 2, 5, 20 or 200 msec, 5 Hz): ~82.72±0.71%
p of logistic fit (Hill coefficient nH) for block of Nav1.7 peak INa [6, 15]: 0.8368
x0 of logistic fit (IC50) for block of Nav1.7 peak INa [6, 15]: 10.3585 μM
IC50 ([7]; ND7/23, read-out: IC50 value, block of TTX-S INa): 9.05 ± 0.56 µM
Hill Coefficient, block of TTX-S INa [7]: [1.15 ± 0.08]
USP Solubility Class ([8]; Solution pH 4.81): Freely Soluble
USP Solubility Class ([8]; Solution pH 4.89): Soluble
USP Solubility Class ([8]; Solution pH 4.90): Soluble
USP Solubility Class ([8]; Solution pH 5.04): Soluble
USP Solubility Class ([8]; Solution pH 5.35): Sparingly Soluble
USP Solubility Class ([8]; Solution pH 5.82): Slightly soluble
USP Solubility Class ([8]; Solution pH 6.46): Slightly soluble
USP Solubility Class ([8]; Solution pH 6.73): Very slightly soluble
USP Solubility Class ([8]; Solution pH 7.08): Very slightly soluble
USP Solubility Class ([8]; Solution pH 7.59 (unbuffered water)): Very slightly soluble
USP Solubility Class ([8]; Solution pH 7.79): Very slightly soluble
USP Solubility Class ([8]; Solution pH 12.66): Very slightly soluble

Source: US20090203707A1, “METHODS FOR TREATING PAIN” (priority 2008, published 2009)
